The target of the assay is Nonstructural protein 3 (Zika virus, UniProt A0A024AXB9). The assay can be described thus: Functional biochemical assay to identify treatments for viral infectious disease that targets Zika NS2B-NS3 protease. Utilizing a direct enzyme activity measurement method, reading the fluorescence intensity is used to characterize the relative potency of inhibitors as IC50. Set-up: species or system PRVABC59.

“And” between values parts separate entries of the source, which are not always exact repeats. Equal values may be shown once. Bounds are passed on as bounds.

Chain of Nonstructural protein 3 (A0A024AXB9 whole entry): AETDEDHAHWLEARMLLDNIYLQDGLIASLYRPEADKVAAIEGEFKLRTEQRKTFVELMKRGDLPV

For the compound `COc1cc(Br)cc(C(=O)Nc2ccc3c(c2)CNC3)c1`, half-maximal inhibition (IC50) required 0.332 µM.
Consider `O=C(Nc1ccc2c(c1)CNC2)c1ccc2c(c1)NCCO2`, for which the IC50 is greater than 99.5 µM.
Compound `C[C@@H](N)c1ccc(NC(=O)c2cc(Cl)cc3[nH]ncc23)cc1` showed a concentration for half-maximal inhibition (IC50) of 2.91 µM.
As for `Cc1c(C(=O)Nc2cc(CCCN)ccn2)cc(C2CCC2)n1C`, the IC50 is greater than 99.5 µM.
Regarding `CCCN1C(=O)[C@](C#N)(Nc2cccc(-c3nn[nH]n3)c2)c2cc(Cl)ccc21`, the half-inhibitory concentration (IC50) was greater than 99.5 µM.
`NCc1ccc(NC(=O)c2cc(Cl)cc3[nH]ncc23)cc1F` yielded a half-maximal inhibitory concentration (IC50) of 4.94 µM.
`Cc1c(C(=O)Nc2cc(CCCN)ccn2)cc(C(C)C)n1C` gave a concentration for half-maximal inhibition (IC50) greater than 99.5 µM.
The result for `CN(C(=O)c1cc(Cl)cc2[nH]ncc12)c1ccc2c(c1)CNC2` reads 80 µM; that for `O=C(Nc1ccc2c(c1)CNC2)c1ccccc1-n1cccc1`, 25.1 µM.
Next, `O=C(Nc1ccc2c(c1)CNC2)c1cc(Cl)cc(-n2cccc2)c1`: 0.091 µM and 0.084 µM; `O=C(Nc1ccc2c(c1)CNC2)c1ccn[nH]1`: 62.1 µM.
Next, `O=c1[nH]c2cc(Cl)ccc2n1Cc1ccc(-c2nn[nH]n2)cc1`: greater than 99.5 µM; `Cc1cc(NC(=O)c2cc(C3CC3)n(C)c2C)ncc1S(N)(=O)=O`: greater than 99.5 µM.
Regarding `O=C(Nc1ccc2c(c1)CNC2)c1cnnc2ccccc12`, the concentration for half-maximal inhibition (IC50) was 19.6 µM.
`O=C(Nc1ccc2c(c1)CNC2)C1CCCCC1` gave a 50% inhibitory concentration (IC50) greater than 99.5 µM.
As to `NCc1cc(NC(=O)c2cc(Cl)cc(NC(=O)OCc3ccccc3)c2)cc(C2=CC[C@H](C(=O)O)CC2)c1`, the half-inhibitory concentration (IC50) amounted to 14.6 µM.
Next, `C[C@H]1NCCc2c(-c3ccc4[nH]c(C(=O)O)cc4c3)cc(F)cc21`: greater than 99.5 µM.
The compound `CCOC(=O)N1CCC[C@H]1c1cccc(-c2ccc3[nH]c(C(=O)O)cc3c2)c1` showed a concentration for half-maximal inhibition (IC50) greater than 99.5 µM.
The result for `CNC(=O)[C@H](Nc1ccc2c(c1)CNC2)c1cccc2[nH]ncc12` reads 3.83 µM; that for `NCc1nc2cc(Cl)ccc2n1Cc1ccc(-c2nn[nH]n2)cc1`, greater than 99.5 µM.
With `FC(F)(F)Oc1cc(Cl)cc2c(Cc3ccc(-c4nnn[nH]4)cc3)c[nH]c12`, the IC50 is 34.1 µM.
For the compound `O=C(Nc1ccc2c(c1)CNC2)c1ncnc2sccc12`, the half-maximal inhibitory concentration (IC50) is greater than 99.5 µM.
As to `O=C(Nc1cc(Cl)cc(-c2ccc(C3(C(=O)O)CCNCC3)cc2)c1)OCc1ccccc1`, the IC50 was greater than 99.5 µM.
The result for `N[C@H]1CCc2ccc(NC(=O)c3cc(Cl)cc4[nH]ncc34)cc21` reads 1.49 µM.
Next, `CCCN1C(=O)[C@](C#N)(Nc2ccc3c(c2)CNC3)c2ccccc21`: 24 µM; `Cc1ccncc1-c1cc(CN)cc([C@@H]2C[C@H]2c2cc(Cl)cc(NC(=O)OCc3ccccc3)c2)c1`: 21.1 µM; `Cc1c(C(=O)Nc2cc(C(N)=O)c3ccccc3n2)cc(C2CC2)n1C`: greater than 99.5 µM.
Next, `O=C1Cc2c(cccc2C(=O)Nc2ccc3c(c2)CNC3)N1`: 0.404 µM and 1.27 µM; `CNCc1ccc(NC(=O)c2cc(Cl)cc3[nH]ncc23)cc1`: 4.34 µM; `Cc1c(C(=O)Nc2nccc3c2CNCC3)cc(C2CC2)n1C`: greater than 99.5 µM.
With `Cc1c(C(=O)Nc2cc(CCCN)ccn2)cc(C2CCCCC2)n1C`, the IC50 was greater than 99.5 µM.
Next, `O=C(Nc1ccc2c(c1)CNCCC2)c1cc(Cl)cc2[nH]ncc12`: 0.376 µM.
The result for `O=C(Nc1ccc2c(c1)CNC2)c1cncc(-c2ccccc2)c1` reads 14.7 µM; that for `O=C(O)C1CCC2(CC1)CC(Cc1c[nH]c3ccc(Cl)cc13)C2` (stereo not drawn), greater than 99.5 µM.
Next, `Cc1cc(-c2ccc3[nH]c(C(=O)O)cc3c2)c(=O)n(Cc2ccccc2)c1`: greater than 99.5 µM; `N#Cc1ccc2[nH]cc(Cc3ccc(-c4nnn[nH]4)cc3)c2c1`: greater than 99.5 µM.
In the case of `O=C(Nc1ccc2c(c1)CNC2)c1c[nH]c2ncc(F)cc12`, half-maximal inhibition (IC50) was put at 23.3 µM.
The result for `NCc1cc(NC(=O)c2cc(Cl)cc(NC(=O)OCc3ccccc3)c2)cc(-c2cccc(CC(=O)O)c2)c1` reads 39.6 µM; that for `Clc1ccc2ncn(Cc3ccc4c(c3)CNC4)c2c1`, greater than 99.5 µM.
As for `O=C(O)Cc1cc2c(c(Cc3c[nH]c4ccc(Cl)cc34)c1)OCC2`, the concentration for half-maximal inhibition (IC50) is greater than 99.5 µM.
With `CCOCCCN1Cc2ccc(NC(=O)c3cc(Cl)cc4[nH]ncc34)cc2C1`, the midpoint of inhibition, the IC50, lay at 33.1 µM.
The compound `O=C(O)c1cc2cc(-c3cc(Cl)c4[nH]c(=O)oc4c3)ccc2[nH]1` gave an IC50 of 90.2 µM.
The result for `O=C(Nc1ccc2c(c1)CNC2)c1cccc2[nH]ncc12` reads 0.129 µM; that for `O=C(c1cc(Cl)cc2[nH]ncc12)N1C[C@H]2CNC[C@H]2C1`, greater than 99.5 µM.
Next, `CNC(=O)[C@]1(Nc2ccc3c(c2)CNC3)C(=O)Nc2ccccc21`: greater than 99.5 µM; `Cn1nc(C(=O)Nc2ccc3c(c2)CNC3)c2cc(Br)ccc21`: 6.63 µM; `O=C(Nc1ccc2c(c1)CN(CC(F)F)C2)c1cc(Cl)cc2[nH]ncc12`: 3.8 µM.
`O=C(Nc1ccc2c(c1)CNC2)c1cc(C(F)(F)F)cc2[nH]ccc12` yielded an IC50 of 1.07 µM.
The result for `CNC(=O)[C@H](Nc1ccc2c(c1)CNC2)c1cc(Cl)cc2[nH]ncc12` reads 0.075 µM and 0.05 µM; that for `NCc1cc(NC(=O)c2cc(Cl)cc(NC(=O)OCc3ccccc3)c2)cc(C2=CC[C@H](C(=O)O)C2)c1`, 7.96 µM; that for `NCc1ccc(NC(=O)c2cc(Cl)cc3[nH]ncc23)cc1`, 3.18 µM.
Next, `O=C(Nc1ccc2c(c1)CCCN2)c1cc(Cl)cc2[nH]ncc12`: greater than 99.5 µM.
The result for `O=C(O)c1nccn2ncc(Cc3c[nH]c4ccc(Cl)cc34)c12` reads greater than 99.5 µM; that for `O=C(O)c1cc2cc(-c3cccc([C@H]4CCOC4)n3)ccc2[nH]1`, greater than 99.5 µM; that for `O=C(Nc1ccc2c(c1)CNC2)c1cc(=O)[nH]c2c(F)cccc12`, 18.7 µM.
In turn, `NCc1cccc([C@@H]2[C@H](C(=O)O)[C@H]2c2cc(N)cc(Cl)c2)c1` registered a half-inhibitory concentration (IC50) greater than 99.5 µM.
As to `O=C(Nc1ccc2c(c1)[C@H]1CC[C@H]2N1)c1cc(Cl)cc2[nH]ncc12`, the concentration for half-maximal inhibition (IC50) amounted to 5.65 µM.
Next, `O=C(NCc1ccc2c(c1)CNC2)c1cc(Cl)cc2[nH]ncc12`: 12 µM; `O=C(Nc1ccc2c(c1)CCNCC2)c1cc(Cl)cc2[nH]ncc12`: 0.37 µM; `O=C(Nc1ccc2c(c1)CNC2)c1ncc(Br)s1`: 61.7 µM.
`O=C(c1cc(Cl)cc2[nH]ncc12)N1CC[C@]2(CCNC2)C1`: the IC50 is greater than 99.5 µM.
Turning to `O=C(NCC1CCNCC1)c1cc(Cl)cc2[nH]ncc12`, the IC50 was found to be 74.6 µM.
Next, `O=C(Nc1ccc2c(c1)CNC2)c1cc(Br)cc2[nH]ncc12`: 0.055 µM and 0.049 µM.
For the compound `COC(=O)c1ccc2[nH]cc(Cc3ccc(-c4nnn[nH]4)cc3)c2c1`, the half-inhibitory concentration (IC50) was greater than 99.5 µM.
In turn, `O=C(c1cc(Cl)cc2[nH]ncc12)N1CCC(C2CCNCC2)CC1` had an IC50 greater than 99.5 µM.
The compound `O=C1NCc2ccc(NC(=O)c3cc(Cl)cc4[nH]ncc34)cc21` registered an IC50 greater than 99.5 µM.
The result for `O=C(Nc1ccc2c(n1)CNC2)c1cc(Cl)cc2[nH]ncc12` reads 0.608 µM; that for `O=C(Nc1ccc2c(c1)CNC2)c1ncnc2ccsc12`, greater than 99.5 µM.
The result for `Cc1ccc(NC(=O)c2cc(Cl)cc3[nH]ncc23)cc1CN` reads 1.39 µM.
Consider `CC(=O)Nc1cc(Br)cc(C(=O)Nc2ccc3c(c2)CNC3)c1`, for which the IC50 was 0.082 µM and 0.069 µM.
With `N#C[C@H](Nc1cc(Cl)cc(C2CC2)c1)c1ccc(-c2nn[nH]n2)cc1`, it took 75.8 µM to reach half-maximal inhibition (IC50).
Compound `Cc1ccc(NC(=O)c2cc(Cl)cc3[nH]ncc23)cc1N` returned an IC50 greater than 99.5 µM.
The result for `NC[C@H]1CC[C@H](NC(=O)c2cc(Cl)cc3[nH]ncc23)CC1` reads 20.1 µM; that for `CNC(=O)[C@]1(Nc2ccc3c(c2)CNC3)CCc2ccc(Cl)cc21`, 34.6 µM.
For the compound `O=C(Nc1ccc2c(c1)CNC2)c1cc(Br)cc2cccnc12`, the half-inhibitory concentration (IC50) was 13.4 µM.
The result for `O=C(Nc1ccc2c(c1)CNC2)c1ccc(OCC(F)(F)F)nc1` reads 22.2 µM.
`O=C(O)Cc1cn2nc(-c3cc(Cl)cc(NC(=O)OCc4ccccc4)c3)ccc2n1` had a 50% inhibitory concentration (IC50) greater than 99.5 µM.
Next, `Nc1nccc(C(=O)Nc2ccc3c(c2)CNC3)n1`: 46.9 µM; `O=C(Nc1cc(Cl)cc(-c2cc(C(=O)O)n(-c3ccc(F)cc3)n2)c1)OCc1ccccc1`: 32.4 µM; `N[C@H]1CCCc2ccc(NC(=O)c3cc(Cl)cc4[nH]ncc34)cc21`: 2.97 µM.
The compound `N[C@H]1Cc2ccc(NC(=O)c3cc(Cl)cc4[nH]ncc34)cc2C1` gave an IC50 of 0.488 µM.
As for `CCc1nc2ccc(Cl)cc2n1Cc1ccc2c(c1)CNC2`, the IC50 is greater than 99.5 µM.
In the case of `CNCc1cccc(NC(=O)c2cc(Cl)cc3[nH]ncc23)c1`, it took 4.8 µM to reach half-maximal inhibition (IC50).
For `O=C(c1cc(Cl)cc2[nH]ncc12)N1CCC[C@H]1C1CCNCC1`, the IC50 is greater than 99.5 µM.
`Cc1ncc(Br)cc1C(=O)Nc1ccc2c(c1)CNC2`: inhibition was half-maximal at 1.85 µM (IC50).
Next, `CC(C)(C)c1[nH]c2ccc(F)cc2c1Cc1ccc(-c2nnn[nH]2)cc1`: greater than 99.5 µM; `CN1C(=O)[C@H](c2cc(Cl)cc(NC(=O)OCc3ccccc3)c2)N(c2cccc(-c3nn[nH]n3)c2)C1=O`: 35.3 µM.
Next, `CCNCc1ccc(NC(=O)c2cc(Cl)cc3[nH]ncc23)cc1`: 11.5 µM; `Cc1c(C(=O)Nc2cc(C#N)c3ccccc3n2)cc(C2CC2)n1C`: greater than 99.5 µM; `O=C(Nc1ccc2c(c1)CNC2)c1cncc(N2CCOCC2)c1`: 66.3 µM.
The compound `N#Cc1cc(C(=O)Nc2ccc3c(c2)CNC3)cc(C(F)(F)F)c1` had an IC50 of 0.533 µM.
The result for `Cc1cc(C#N)cc2c(Cc3ccc(-c4nnn[nH]4)cc3)c[nH]c12` reads greater than 99.5 µM; that for `COc1nnc(C(F)(F)F)cc1-c1ccc2[nH]c(C(=O)O)cc2c1`, greater than 99.5 µM.
Next, `CCc1nccn1CC(=O)Nc1ccc2c(c1)CNC2`: greater than 99.5 µM.
`COCCCN1Cc2ccc(NC(=O)c3cc(Cl)cc4[nH]ncc34)cc2C1`: the IC50 amounted to 13.1 µM.
Next, `O=C(CSc1cccc(Br)c1)Nc1ccc2c(c1)CNC2`: greater than 99.5 µM; `NC(=O)c1[nH]c2ccc(Br)cc2c1Cc1ccc(-c2nnn[nH]2)cc1`: greater than 99.5 µM.
Compound `Cc1oc(C2CC2)nc1C(=O)Nc1cc(CCCN)ccn1` had a half-inhibitory concentration (IC50) greater than 99.5 µM.

One may read the IC50 as the concentration at which inhibition is half-maximal. A lower IC50 goes with greater potency in that assay.
